Values quoted from earlier work, collected in patent US7041851B2, “Fluorinated phenyl thiophenyl derivatives and their use for imaging serotonin transporters” (The Trustees of the University of Pennsylvania, priority 2002, dated 2006).

Target: T1, SERT (Rattus norvegicus, UniProt P31652)
T1 construct: from tissue; host or cells: rat brain in vivo (hypothalamus, striatum, hippocampus, cerebellum)
Conditions: comparison with [18F]ACF, hypothalamus region; cited from earlier work

T1 sequence (P31652 whole entry): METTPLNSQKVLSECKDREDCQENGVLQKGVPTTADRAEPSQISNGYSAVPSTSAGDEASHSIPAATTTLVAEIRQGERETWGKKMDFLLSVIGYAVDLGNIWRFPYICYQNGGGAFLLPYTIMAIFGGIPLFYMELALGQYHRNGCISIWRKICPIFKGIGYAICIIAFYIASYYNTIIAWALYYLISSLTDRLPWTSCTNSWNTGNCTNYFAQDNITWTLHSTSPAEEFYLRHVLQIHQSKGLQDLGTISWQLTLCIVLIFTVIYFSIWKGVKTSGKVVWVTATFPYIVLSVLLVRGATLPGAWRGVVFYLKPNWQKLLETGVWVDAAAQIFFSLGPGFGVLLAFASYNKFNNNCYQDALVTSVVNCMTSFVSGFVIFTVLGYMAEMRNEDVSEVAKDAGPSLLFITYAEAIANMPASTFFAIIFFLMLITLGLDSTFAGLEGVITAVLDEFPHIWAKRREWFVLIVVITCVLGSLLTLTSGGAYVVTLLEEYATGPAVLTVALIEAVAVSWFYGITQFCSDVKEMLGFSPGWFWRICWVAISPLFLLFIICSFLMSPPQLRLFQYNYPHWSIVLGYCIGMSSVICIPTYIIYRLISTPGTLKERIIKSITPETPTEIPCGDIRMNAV

SMILES: CN(C)Cc1ccccc1Sc1ccc([125I])cc1N [[^125I]ADAM]
- Time of peak uptake: 4 h
